Legend:
SET7/9 [1] = biological target: T1, SET7/9 (Homo sapiens, UniProt Q8WTS6); assay: Sinefungin Probe 1A competition FP assay with SET7/9; type: binding; settings: for IC50: read-out: IC50 for displacement of Sinefungin Probe 1A
T1 construct: purchased Cayman 10320
T1 sequence (Q8WTS6 1-366): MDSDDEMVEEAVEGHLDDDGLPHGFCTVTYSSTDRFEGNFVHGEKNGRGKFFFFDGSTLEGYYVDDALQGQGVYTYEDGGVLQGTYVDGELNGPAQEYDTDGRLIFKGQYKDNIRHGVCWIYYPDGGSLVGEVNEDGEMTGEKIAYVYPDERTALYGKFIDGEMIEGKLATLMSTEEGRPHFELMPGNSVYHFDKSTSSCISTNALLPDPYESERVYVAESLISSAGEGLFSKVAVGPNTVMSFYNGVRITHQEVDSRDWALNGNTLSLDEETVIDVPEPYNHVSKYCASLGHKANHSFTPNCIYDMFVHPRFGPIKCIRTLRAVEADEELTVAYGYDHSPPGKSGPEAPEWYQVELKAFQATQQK
Description: Methods: Carboxymethyl cellulose-purified SAM, SAH (Cayman Catalog #700145), and sinefungin were diluted in a semi-Log manner in FP buffer (Cayman Catalog #600028). Five microliters of these dilutions were added to the wells of a low-volume, black, 384-well plate (Nunc #264705). […] The assay was allowed to equilibrate at room temperature for 30 minutes in the dark. Fluorescence polarization was measured as above. The experiment was performed two independent times, each in duplicate.

SET7/9 [2] = biological target: T1, SET7/9; assay: SET7/9 SAM-Screener high-throughput FP assay, Sinefungin Probe 1A displacement; type: binding; settings: SET7/9; sinefungin 50 μM; SAM
Description: Methods: A collection of 14,400 compounds from the Maybridge HitFinder collection of compounds was assayed for the displacement of Sinefungin Probe 1A from SET7/9 in a high-throughput manner using the SET7/9 SAM-Screener FP assay Cayman Catalog Item #600490). Thirty microliters of assay buffer (50 mM Tris pH 8.0, 50 mM KCl, 5 mM CHAPS, 2 mM DTT) was added to every well of a black 384-well polystyrene microtiter plate (Thermo-Fisher 364576). To every well, excluding control wells, was added one microliter of a DMSO solution containing a test compound. Control wells received either 1 μl DMSO or 1 μl of a sinefungin solution. The final concentration of sinefungin control or test compounds in the assay was 50 μM or 10 μM, respectively. To every well of the plate was added 10 μl of a SET7/9 solution to give a final assay concentration of 30 nM. After a 15-minute incubation at ambient temperature, 10 μl of Sinefungin Probe 1A solution was added to every well to give a final assay concentration of 10 nM in a total assay volume of 50 μl Samples were analyzed using a Biotek Synergy H4 plate reader in fluorescence polarization mode after a 30-minute incubation at ambient temperature in the dark. Data were analyzed using GeneData (v. 9.01). […]

SET7/9 [3] = biological target: T1, SET7/9; assay: Fluorescence polarization saturation binding of fluorescent probe to SET7/9; settings: FIG. 11A, FIG. 12
Description: Methods: The experiment was performed once, with two replicate wells for all methyltransferases per condition. The sole exception to this is NSD2 (see details below). The assay was performed in a ½ area, black, 96-well plate (Corning #3686) in a final volume of 30 μL. Methyltransferases (Table 1) were serially diluted two-fold in FP buffer (Cayman Catalog #600028) and 15 μL of a given dilution were added per well to the assay plate. Fifteen microliters of sinefungin probe 1A (10 nM) were added to each well, giving a final sinefungin probe 1A concentration of 5 nM. This concentration of sinefungin probe 1A was chosen because it had at least a 10-fold increase in fluorescence (excitation max 575 nm/emission max 615 nm) over background (buffer). The mixture was incubated in the dark at room temperature for 30 minutes and its fluorescence polarization was read using a BioTek Synergy 4.

SET7/9 [4] = biological target: T1, SET7/9; assay: Sinefungin Probe 1B displacement FP assay with SET7/9 (Epigenetics Screening Library profiling); type: binding; settings: SET7/9, FIG. 11B
Description: Profiling of a pre-production version of the Cayman Chemical Epigenetics Screening Library (Cayman Catalog Item #11076) against SET7/9 and GLP was performed in a similar manner using Sinefungin Probe 1B. For GLP, the enzyme concentration was raised to 500 nM to produce a robust signal:noise ratio. Data were analyzed in GraphPad Prism (v. 5.04) and/or GeneData (v. 9.01).
An analog of Sinefungin Probe 1A, Sinefungin Probe 1B, wherein the hexyl portion of the linker moiety is replaced with PEG3 and the Cal Fluor® Red 610 fluorophore moiety is replaced with the “Fluor585” (Texas Red)-derived fluorophore moiety, was tested for the ability to bind several methyltransferases, including SET7/9. […] Similar data have been observed for GLP and G9a.

[5] = 30 nM SET7/9, 10 nM Sinefungin Probe 1A, FIG. 3

`Nc1ncnc2c1ncn2[C@@H]1O[C@H](CSCC[C@H](N)C(=O)O)[C@@H](O)[C@H]1O` [SAH, S-adenosylhomocysteine] was tested, and the “competition with probe binding” value (SET7/9 [1]; [5]) was “did not compete with probe binding at concentrations below 1 μM”.
`C[S+](CC[C@H](N)C(=O)O)C[C@H]1O[C@@H](n2cnc3c(N)ncnc32)[C@H](O)[C@@H]1O` (stereo partly shown) [SAM, S-Adenosylmethionine, reference compound] was tested, and the “inhibition of probe binding (controls)” value (SET7/9 [2]) was “fully inhibits probe binding” and the IC50 (SET7/9 [1]; [5]) was 130 nM.
With `Nc1ncnc2c1ncn2[C@@H]1O[C@H](C[C@@H](N)CC[C@H](N)C(=O)O)[C@@H](OCc2cnnn2CCCCCCNC(=O)OC2CCN(C(=O)c3ccccc3C3=c4cc5c6c(c4Oc4c3cc3c7c4CCCN7CCC3)CCC[N+]=6CCC5)CC2)[C@H]1O` [Sinefungin Probe 1B] the “affinity for SET7/9 compared with the other sinefungin probes” value (SET7/9 [3]) was “essentially identical affinities”.
`Nc1ncnc2c1ncn2[C@@H]1O[C@H](C[C@@H](N)CC[C@H](N)C(=O)O)[C@@H](O)[C@H]1O` [sinefungin, Sinefungin] showed an IC50 (SET7/9 [1]; [5]) of 220 nM, a Ki (SET7/9 [1]; SET7/9, read-out: Ki for displacement of Sinefungin Probe 1A) of 168 nM and a Ki (SET7/9 [4]) of 120 nM.

From patent US9120820B2, “Fluorescent molecular probes for use in assays that measure test compound competitive binding with SAM-utilizing proteins” (CAYMAN CHEMICAL COMPANY, INCORPORATED, priority 2011, dated 2015)
